{"source": "paper PMC4106346", "about": "“The Oligomeric States of the Purified Sigma-1 Receptor Are Stabilized by Ligands” (The Journal of Biological Chemistry, 2014)", "key": {"sigma-1 receptor (S1R) [1]": {"target": "T1, sigma-1 receptor (S1R) (Cavia porcellus, UniProt Q60492)", "T1 sequence (Q60492 whole entry)": "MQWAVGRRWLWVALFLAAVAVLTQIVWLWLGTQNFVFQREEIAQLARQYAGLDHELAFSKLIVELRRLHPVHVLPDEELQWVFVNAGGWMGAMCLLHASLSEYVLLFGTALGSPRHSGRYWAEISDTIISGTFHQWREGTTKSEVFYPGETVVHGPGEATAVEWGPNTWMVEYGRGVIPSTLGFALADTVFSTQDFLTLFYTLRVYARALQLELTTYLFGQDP", "experiment": "titration by ligand stabilization of the oligomer, analytical SEC with tryptophan fluorescence", "assay_type": "binding", "design": "gene SIGMAR1"}, "sigma-1 receptor (S1R) [2]": {"target": "T2, sigma-1 receptor (S1R) (Cavia porcellus, UniProt Q60492, H97A)", "T2 construct": "gene SIGMAR1; MBP-4A-S1R", "T2 sequence (Q60492 whole entry H97A)": "as the sequence (Q60492 whole entry) above, with H97A counted along it", "experiment": "radioligand filtration binding, […] (+)-[3H]pentazocine"}, "sigma-1 receptor (S1R) [3]": {"target": "T1, sigma-1 receptor (S1R)", "experiment": "ligand stabilization of the purified oligomer, analytical SEC", "assay_type": "binding", "design": "gene SIGMAR1; MBP-4A-S1R, purified oligomer (peak 1)"}, "sigma-1 receptor (S1R) [4]": {"target": "T1, sigma-1 receptor (S1R)", "experiment": "ligand stabilization of the purified oligomer at […] °C, analytical SEC", "assay_type": "binding", "design": "gene SIGMAR1; MBP-4A-S1R, purified oligomer (peak 1)"}}, "note": "Counter-ions that a name gives are not always drawn.", "data": [{"compound": "CN(C)CCN(C)CCc1ccc(Cl)c(Cl)c1", "note": "[BD-1047, N-[2-(3,4-dichlorophenyl)ethyl]-N-methyl-2-(dimethylamino)ethylamine dihydrobromide]", "values": [{"measurement": "Kd", "setting": "sigma-1 receptor (S1R) [1]", "result": "~7", "unit": "nM"}]}, {"compound": "CC(C)=CCN1CC[C@]2(C)c3cc(O)ccc3C[C@H]1[C@H]2C", "note": "[(+)-pentazocine]", "values": [{"measurement": "% of nonmutated binding", "setting": "sigma-1 receptor (S1R) [2]", "result": "~ 50 % of nonmutated binding"}]}, {"compound": "CCCCCCCCCCCCC/C=C/[C@@H](O)[C@@H](N)CO", "note": "[sphingosine]", "values": [{"measurement": "ligand stabilization of the purified oligomer, analytical SEC", "setting": "sigma-1 receptor (S1R) [3]", "result": "the natural membrane lipid sphingosine gave a stabilizing interaction that was close to that of many of the synthetic ligands"}]}, {"compound": "c1ccc(CCCCN2CCC(c3ccccc3)CC2)cc1", "note": "[4-PPBP, 4-phenyl-1-(4-phenylbutyl)piperidine maleate]", "values": [{"measurement": "ligand stabilization of the purified oligomer at 37 °C, analytical SEC", "setting": "sigma-1 receptor (S1R) [4]", "result": "Tight-binding ligands 4-PPBP, BD-1047 and others stabilized the oligomeric states"}]}]}
